Data published in the supplement of paper PMC10307832.

What was measured:
Assay in all cases: relative viability (nuclei count vs DMSO), 5 days (fraction); higher = more cells survive
[1] = compound: CC1=C(C(=O)N2C=CSC2=N1)CCN3CCC(=C(C4=CC=CC=C4)C5=CC=C(C=C5)F)CC3 + CC1(C)CCC(c2ccc(Cl)cc2)=C(CN2CCN(c3ccc(C(=O)NS(=O)(=O)c4ccc(N[C@H](CCN5CCOCC5)CSc5ccccc5)c(S(=O)(=O)C(F)(F)F)c4)cc3)CC2)C1 [Navitoclax] (partner 0.5 µM)
Outline: (§1)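 After 5 days of treatment, lung cancer cells in 1536-well plates were fixed and stained in a single step (final 0.05% Triton X-100, 1% formaldehyde, 1 ug/ml Hoechst) and their nuclei counted on 4× images. Treatment had been applied by pin tool the day after seeding as one drug alone or as a fixed anchor-drug dose with five library-drug doses (not always all listed) in √10 steps. Relative viability is the nuclei count of treated wells divided by that of vehicle wells, and values are medians of duplicate plates.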

[2] = compound: CC1=C(C(=O)N2C=CSC2=N1)CCN3CCC(=C(C4=CC=CC=C4)C5=CC=C(C=C5)F)CC3 + C[C@@H](Oc1cc(-c2cnn(C3CCNCC3)c2)cnc1N)c1c(Cl)ccc(F)c1Cl [Crizotinib] (partner 1 µM)
Outline: as §1

[3] = compound: CC1=C(C(=O)N2C=CSC2=N1)CCN3CCC(=C(C4=CC=CC=C4)C5=CC=C(C=C5)F)CC3 + N=C(N)NC(=N)NCCc1ccccc1 [Phenformin] (partner 250 µM)
Outline: as §1

[4] = compound: CC1=C(C(=O)N2C=CSC2=N1)CCN3CCC(=C(C4=CC=CC=C4)C5=CC=C(C=C5)F)CC3 + Nc1ncn([C@H]2C[C@H](O)[C@@H](CO)O2)c(=O)n1 [Decitabine] (partner 2 µM)
Outline: as §1

Cell Line	relative viability ([1]; first compound 0.08 µM)	relative viability ([1]; first compound 0.253 µM)	relative viability ([1]; first compound 0.8 µM)	relative viability ([1]; first compound 2.53 µM)	relative viability ([1]; first compound 8 µM)	relative viability ([2]; first compound 0.08 µM)	relative viability ([2]; first compound 0.253 µM)	relative viability ([2]; first compound 0.8 µM)	relative viability ([2]; first compound 2.53 µM)	relative viability ([2]; first compound 8 µM)	relative viability ([3]; first compound 0.08 µM)	relative viability ([3]; first compound 0.253 µM)	relative viability ([3]; first compound 0.8 µM)	relative viability ([3]; first compound 2.53 µM)	relative viability ([3]; first compound 8 µM)	relative viability ([4]; first compound 0.08 µM)	relative viability ([4]; first compound 0.253 µM)	relative viability ([4]; first compound 0.8 µM)	relative viability ([4]; first compound 2.53 µM)	relative viability ([4]; first compound 8 µM)
NCI-H1734	0.732	0.818	0.966	0.795	0.493	0.661	0.653	0.625	0.672	0.467	0.419	0.378	0.371	0.405	0.322	0.481	0.469	0.507	0.504	0.496
NCI-H1755	0.932	1.02	1.1	1.02	0.56	0.927	0.87	0.907	0.997	0.722	0.681	0.659	0.578	0.66	0.565	0.677	0.784	0.721	0.66	0.754
NCI-H1792	0.454	0.518	0.602	0.481	0.47	1.01	0.671	1.02	1.11	0.549		0.257	0.211	0.33	0.254	0.312	0.561	0.614	0.426	0.19
NCI-H1915	0.741	0.691	0.832	0.807	0.725	0.953	1.01	0.957	0.862	0.521	0.376	0.377	0.365	0.363	0.317	0.305	0.277	0.265	0.253	0.257
NCI-H1944	1.03	0.916	1.02	1.06	1.06	1.06	1.08	1.22	1.14	1.07	0.195	0.207	0.229	0.188	0.182	0.462	0.43	0.413	0.433	0.417
NCI-H1975	1.08	1.02	1.17	1.26	0.573	0.984	0.96	0.93	0.943	0.583	0.393	0.425	0.397	0.441	0.381	0.347	0.507	0.36	0.408	0.353
NCI-H1993	0.954		1.12	1.05	0.917	0.708		0.796	0.906	0.832	0.505	0.411	0.51	0.568	0.536	0.635	0.644	0.6	0.64	0.576
NCI-H2009	1.15	1.14	1.18	1.22	1.09	1.25	1.12	0.968	1.14	1.11	0.541	0.492	0.493	0.49	0.362	0.396	0.393	0.396	0.396	0.369
NCI-H2023	0.99	0.894	0.997	1.08	1.09	0.69	0.566	0.725	0.649	0.563	0.441	0.312	0.426	0.389	0.251	0.257	0.248	0.217	0.24	0.156
NCI-H2085	1.12	1.1	1.21	1.1	0.908	0.692	0.986	0.921	0.861	0.649	0.769	0.699	0.661	0.762	0.591	0.553	0.563	0.504	0.573	0.559
NCI-H2087	1	0.712	0.995	1.23	0.794	0.818	0.813	0.94	0.944	0.525	0.333	0.434	0.529	0.585	0.323	0.245	0.236	0.255	0.286	0.191
NCI-H2126	0.835	0.839	0.846	0.971	0.799	1.08	1.03	1.09	1.02	0.992	0.518	0.541	0.525	0.555	0.517	0.588	0.518	0.599	0.614	0.514
NCI-H2170	0.515	0.605	0.649	0.492	0.58	1.2	1.17	1.36	1.11	0.927	0.42	0.42	0.37	0.417	0.39	0.522	0.461	0.487	0.457	0.395
NCI-H2347	0.313	0.739	0.89	0.663	0.552	0.692	0.801	0.675	0.508	0.684	0.299	0.403	0.317	0.421	0.397	0.375	0.693	0.667	0.621	0.513
NCI-H2405	0.892	0.968	1.08	0.962	0.705	0.817	0.788	0.871	0.858	0.725	0.373	0.366	0.399	0.375	0.332	0.785		0.8	0.724	0.617
NCI-H3122	1.11	1.04	1.03	1.04	0.965	0.286	0.262	0.258	0.316	0.267	0.38	0.376	0.386	0.396	0.394	0.398	0.434	0.402	0.467	0.439
